The values below come from US6933304B2, “Heteroarylalkanoic acids as integrin receptor antagonists” (Pharmacia Corporation, priority 2000, dated 2005).

Experiment [1] concerns the target T1, αVβ3 integrin (293-β3 cells) (Homo sapiens, UniProt P05106+P06756).
T1 construct: expressed in transfected cells; host or cells: 293 human embryonic kidney cells (293-β3)
The experiment can be described thus: 293-β3 cell adhesion assay (adhesion to immobilized vitronectin). It counts as cell-based. Conditions: 200 uM Mn2+, read-out: 293-β3 (IC50 <10 μM). From the text:
While the β3 subunit of αVβ3 is only known to complex with αV or αIIb, the αV subunit complexes with multiple β subunits. The three αV integrins most homologous with αVβ3 are αVβ1, αVβ5 and αVβ6, with 43%, 56% and 47% amino acid identity in the β subunits, respectively. To evaluate the selectivity of compounds between the integrins αVβ3 and αVβ6, cell-based assays were established using the 293 human embryonic kidney cell line. 293 cells express αVβ1, but little to no detectable αVβ3 or αVβ6. cDNAs for β3 and β6 were transfected separately into 293 cells to generate 293-β3 and 293-β6 cells, respectively. High surface expression of αVβ3 and αVβ6 was confirmed by flow cytometry. Conditions were established for each cell line in which cell adhesion to immobilized human vitronectin was mediated by the appropriate integrin, as determined by a panel of integrin-specific, neutralizing monoclonal antibodies. Briefly, cells were incubated with inhibitor in the presence of 200 uM Mn^2+, allowed to adhere to immobilized vitronectin, washed, and adherent cells are detected endogenous alkaline phosphatase and para-nitrophenyl phosphate. An 8-point dose-response curve using either 10-fold or 3-fold dilutions of compound was evaluated by fitting a four-parameter logistic, nonlinear model (using SAS).

The target in experiment [2] is T2, αVβ6 (HT-29 human colon carcinoma cells) (Homo sapiens, UniProt P06756+P18564).
T2 construct: endogenous in cells; host or cells: HT-29 human colon carcinoma cells
Briefly: HT-29 cell adhesion assay (adhesion to immobilized LAP). It counts as cell-based. Conditions: selectivity ratio: IC50 αVβ6 (HT-29) over IC50 β3. How it is done:
To evaluate compound potency for membrane-bound αVβ6 an additional cell-based adhesion assay was established using the HT-29 human colon carcinoma cell line. High surface expression of αVβ6 on HT-29 cells was confirmed by flow cytometry. Conditions were established in which cell adhesion to immobilized human latency associated peptide (LAP) was mediated by the αVβ6, as determined by a panel of integrin-specific, neutralizing monoclonal antibodies. Briefly, cells were incubated with inhibitor in the presence of 200 uM Mn^2+, allowed to adhere to immobilized LAP, washed, and adherent cells are detected by quantifying endogenous alkaline phosphatase using para-nitrophenyl phosphate. An 8-point dose-response curve using either 10-fold or 3-fold dilutions of compound was evaluated by fitting a four-parameter logistic, nonlinear model (using SAS). The compounds evaluated were relatively ineffective at inhibition of αVβ6-mediated cell adhesion. The selective antagonism of the αVβ3 integrin is viewed as desirable in this class of compounds, as αVβ6 may also play a role in normal physiological processes of tissue repair and cellular turnover that routinely occur in the skin and pulmonary tissues.

Experiment [3] addresses T3, Human fibrinogen receptor (IIb/IIIa) (Homo sapiens, UniProt P05106+P08514).
T3 construct: Human fibrinogen receptor (IIb/IIIa) was purified from outdated platelets; from tissue; host or cells: outdated human platelets
The experiment can be described thus: Purified IIb/IIIa receptor assay (solid phase receptor assay, SPRA). It counts as binding. The note with it: selectivity ratio: IC50 αIIbβ3 (solid phase receptor assay) over IC50 β3. From the text:
Human fibrinogen receptor (IIb/IIIa) was purified from outdated platelets. (Pytela, R., Pierschbacher, M. D., Argraves, S., Suzuki, S., and Rouslahti, E. “Arginine-Glycine-Aspartic acid adhesion receptors”, Methods in Enzymology 144(1987):475-489.) Human vitronectin was purified from fresh frozen plasma as described in Yatohgo, T., Izumi, M., Kashiwagi, H., and Hayashi, M., “Novel purification of vitronectin from human plasma by heparin affinity chromatography,” Cell Structure and Function 13(1988):281-292. Biotinylated human vitronectin was prepared by coupling NHS-biotin from Pierce Chemical Company (Rockford, IL) to purified vitronectin as previously described. (Charo, I. F., Nannizzi, L., Phillips, D. R., Hsu, M. A., Scarborough, R. M., “Inhibition of fibrinogen binding to GP IIb/IIIa by a GP IIIa peptide”, J. Biol. Chem. 266(3)(1991): 1415-1421.) Assay buffer, OPD substrate tablets, and RIA grade BSA were obtained from Sigma (St. Louis, Mo.). Anti-biotin antibody was obtained from Sigma (St. Louis, Mo.). Nalge Nunc-Immuno microtiter plates were obtained from (Rochester, N.Y.). ADP reagent was obtained from Sigma (St. Louis, Mo.).
This assay is essentially the same reported in Niiya, K., Hodson, E., Bader, R., Byers-Ward, V. Koziol, J. A., Plow, E. F. and Ruggeri, Z. M., “Increased surface expression of the membrane glycoprotein IIb/IIIa complex induced by platelet activation: Relationships to the binding of fibrinogen and platelet aggregation”, Blood 70(1987):475-483. The purified human fibrinogen receptor (IIb/IIIa) was diluted from stock solutions to 1.0 μg/mL in Tris-buffered saline containing 1.0 mM Ca^++, Mg^++, and Mn^++, pH 7.4 (TBS^+++). The diluted receptor was immediately transferred to Nalge Nunc-Immuno microtiter plates at 100 μL/well (100 ng receptor/well). The plates were sealed and incubated overnight at 4° C. to allow the receptors to bind to the wells. All remaining steps were at room temperature. The assay plates were emptied and 200 μL of 1% RIA grade BSA in TBS^+++ (TBS^+++/BSA) were added to block exposed plastic surfaces. Following a 2 hour incubation, the assay plates were washed with TBS^+++ using a 96 well plate washer. Logarithmic serial dilution of the test compound and controls were made starting at a stock concentration of […] and using 2 nM biotinylated vitronectin in TBS^+++/BSA as the diluent. This premixing of labeled ligand with test (or control) ligand, and subsequent transfer of 50 μL aliquots to the assay plate was carried out with a CETUS Propette robot; the final concentration of the labeled ligand was 1 nM and the highest concentration of test compound was 1.0×10^−4 M. The competition occurred for two hours after which all wells were washed with a plate washer as before. Affinity purified horseradish peroxidase labeled goat anti-biotin antibody was diluted 1:2000 in TBS^+++/BSA and 125 μL were added to each well. After 45 minutes, the plates were washed and incubated with […] substrate in 100 mM/L citrate buffer, pH 5.0. The plate was read with a microtiter plate reader at a wavelength of 450 nm and when the maximum-binding control wells reached an absorbance of about 1.0, the final A450 were recorded for analysis. The data were analyzed using a macro written for use with the EXCELJ spreadsheet program. The mean, standard deviation, and %CV were determined for duplicate concentrations. The mean A450 values were normalized to the mean of four maximum-binding controls (no competitor added)(B-MAX). The normalized values were subjected to a four parameter curve fit algorithm, [Robard et al., Int.

SMILES strings stand for the structures. Where a name gives a salt, the structure may show the parent alone.

T2 sequence (P06756 31-889 limits assumed): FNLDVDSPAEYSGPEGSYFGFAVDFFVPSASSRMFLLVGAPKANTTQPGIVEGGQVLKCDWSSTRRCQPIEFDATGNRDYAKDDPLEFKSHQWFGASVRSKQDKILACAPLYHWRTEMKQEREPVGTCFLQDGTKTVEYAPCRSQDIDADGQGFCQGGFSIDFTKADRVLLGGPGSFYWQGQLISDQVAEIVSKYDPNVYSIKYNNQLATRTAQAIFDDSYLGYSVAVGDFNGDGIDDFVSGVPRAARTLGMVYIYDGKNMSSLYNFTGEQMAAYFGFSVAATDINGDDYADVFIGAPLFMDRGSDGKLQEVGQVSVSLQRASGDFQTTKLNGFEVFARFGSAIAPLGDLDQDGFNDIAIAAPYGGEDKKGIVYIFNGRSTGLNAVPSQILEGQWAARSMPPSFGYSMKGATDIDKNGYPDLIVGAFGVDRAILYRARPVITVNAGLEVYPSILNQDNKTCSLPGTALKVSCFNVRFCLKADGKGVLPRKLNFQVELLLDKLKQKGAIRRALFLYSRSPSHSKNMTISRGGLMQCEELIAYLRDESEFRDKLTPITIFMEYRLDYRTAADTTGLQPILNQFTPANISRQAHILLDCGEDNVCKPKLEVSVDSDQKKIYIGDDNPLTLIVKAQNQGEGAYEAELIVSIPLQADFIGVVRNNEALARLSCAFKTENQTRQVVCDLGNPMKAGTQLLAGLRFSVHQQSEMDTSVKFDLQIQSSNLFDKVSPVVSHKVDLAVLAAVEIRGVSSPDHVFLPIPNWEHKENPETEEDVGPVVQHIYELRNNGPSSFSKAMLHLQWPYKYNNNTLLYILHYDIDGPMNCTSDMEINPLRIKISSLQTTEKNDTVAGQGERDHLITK
T2 sequence (P06756 891-1048 partner limits assumed): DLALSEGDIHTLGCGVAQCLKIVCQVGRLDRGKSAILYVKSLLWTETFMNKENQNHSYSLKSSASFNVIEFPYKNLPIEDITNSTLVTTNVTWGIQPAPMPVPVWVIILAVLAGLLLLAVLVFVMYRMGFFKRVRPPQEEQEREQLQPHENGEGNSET
T2 sequence (P18564 22-788): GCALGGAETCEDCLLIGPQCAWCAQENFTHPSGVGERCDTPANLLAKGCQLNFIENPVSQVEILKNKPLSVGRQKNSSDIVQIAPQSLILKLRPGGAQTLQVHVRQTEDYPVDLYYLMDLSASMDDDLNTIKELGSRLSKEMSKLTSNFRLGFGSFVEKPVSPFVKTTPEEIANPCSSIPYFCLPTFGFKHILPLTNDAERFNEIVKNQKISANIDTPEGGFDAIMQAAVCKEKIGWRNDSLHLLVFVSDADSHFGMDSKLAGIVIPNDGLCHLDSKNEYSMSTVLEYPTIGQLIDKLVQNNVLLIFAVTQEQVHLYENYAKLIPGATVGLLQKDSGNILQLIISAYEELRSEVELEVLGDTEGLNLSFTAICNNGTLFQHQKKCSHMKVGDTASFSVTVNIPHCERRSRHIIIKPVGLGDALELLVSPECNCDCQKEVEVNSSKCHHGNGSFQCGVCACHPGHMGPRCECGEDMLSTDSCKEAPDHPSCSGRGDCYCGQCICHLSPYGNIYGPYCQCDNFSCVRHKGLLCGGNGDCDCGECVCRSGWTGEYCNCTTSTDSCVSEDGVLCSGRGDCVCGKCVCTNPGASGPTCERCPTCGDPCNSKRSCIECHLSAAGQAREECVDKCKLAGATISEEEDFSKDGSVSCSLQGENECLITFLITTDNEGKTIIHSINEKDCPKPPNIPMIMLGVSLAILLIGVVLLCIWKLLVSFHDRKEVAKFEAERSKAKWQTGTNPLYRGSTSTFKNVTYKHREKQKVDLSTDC
T1 sequence (P06756 31-889 limits assumed): as the sequence (P06756 31-889 limits assumed) above
T1 sequence (P06756 891-1048 partner limits assumed): as the sequence (P06756 891-1048 partner limits assumed) above
T1 sequence (P05106 27-788): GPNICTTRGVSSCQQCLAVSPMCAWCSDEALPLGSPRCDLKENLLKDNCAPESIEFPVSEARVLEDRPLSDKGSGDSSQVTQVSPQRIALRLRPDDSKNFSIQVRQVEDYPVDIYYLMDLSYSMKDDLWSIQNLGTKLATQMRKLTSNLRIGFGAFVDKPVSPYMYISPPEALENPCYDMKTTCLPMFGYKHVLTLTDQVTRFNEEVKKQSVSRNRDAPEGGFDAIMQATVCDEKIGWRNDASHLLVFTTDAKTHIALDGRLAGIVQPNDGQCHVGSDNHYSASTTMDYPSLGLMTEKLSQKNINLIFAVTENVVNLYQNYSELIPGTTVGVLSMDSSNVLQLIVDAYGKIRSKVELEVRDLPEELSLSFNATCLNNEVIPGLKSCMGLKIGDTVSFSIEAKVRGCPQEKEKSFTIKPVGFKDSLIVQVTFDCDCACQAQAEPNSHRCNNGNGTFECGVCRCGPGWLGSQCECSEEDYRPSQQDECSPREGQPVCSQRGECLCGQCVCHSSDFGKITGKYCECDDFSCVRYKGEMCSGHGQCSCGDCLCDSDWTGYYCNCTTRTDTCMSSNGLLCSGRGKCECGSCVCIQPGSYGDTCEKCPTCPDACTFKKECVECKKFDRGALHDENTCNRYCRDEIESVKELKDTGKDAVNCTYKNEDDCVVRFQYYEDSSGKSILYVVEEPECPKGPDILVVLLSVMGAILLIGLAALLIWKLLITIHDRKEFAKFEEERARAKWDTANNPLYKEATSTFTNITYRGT
T3 sequence (P08514 32-887 limits assumed): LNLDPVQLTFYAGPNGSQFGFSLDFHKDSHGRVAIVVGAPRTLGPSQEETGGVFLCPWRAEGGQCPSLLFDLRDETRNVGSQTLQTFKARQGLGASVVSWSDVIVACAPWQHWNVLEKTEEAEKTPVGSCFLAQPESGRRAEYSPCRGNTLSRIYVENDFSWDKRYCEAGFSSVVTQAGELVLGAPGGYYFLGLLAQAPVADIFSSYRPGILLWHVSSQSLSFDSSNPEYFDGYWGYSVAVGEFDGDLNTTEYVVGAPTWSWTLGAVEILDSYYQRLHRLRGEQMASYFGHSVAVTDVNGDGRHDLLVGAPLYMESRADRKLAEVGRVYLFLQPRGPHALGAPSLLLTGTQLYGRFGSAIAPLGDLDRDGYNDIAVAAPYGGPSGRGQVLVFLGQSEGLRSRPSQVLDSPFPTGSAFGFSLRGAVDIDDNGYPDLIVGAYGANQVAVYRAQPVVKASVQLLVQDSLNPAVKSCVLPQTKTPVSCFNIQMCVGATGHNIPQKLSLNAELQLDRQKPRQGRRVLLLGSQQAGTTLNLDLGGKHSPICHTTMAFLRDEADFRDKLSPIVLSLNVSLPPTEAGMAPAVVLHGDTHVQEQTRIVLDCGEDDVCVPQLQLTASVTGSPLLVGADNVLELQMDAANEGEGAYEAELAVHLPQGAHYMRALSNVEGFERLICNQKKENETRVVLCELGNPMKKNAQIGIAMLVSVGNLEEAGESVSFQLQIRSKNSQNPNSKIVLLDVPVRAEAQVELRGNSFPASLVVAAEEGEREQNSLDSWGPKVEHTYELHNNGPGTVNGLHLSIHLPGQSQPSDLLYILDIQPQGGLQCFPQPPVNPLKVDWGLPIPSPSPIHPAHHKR
T3 sequence (P08514 891-1039 partner limits assumed): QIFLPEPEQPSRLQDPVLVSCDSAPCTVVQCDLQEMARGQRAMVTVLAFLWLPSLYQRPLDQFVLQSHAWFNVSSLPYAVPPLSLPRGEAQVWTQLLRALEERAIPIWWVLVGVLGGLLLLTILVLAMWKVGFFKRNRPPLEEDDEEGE
T3 sequence (P05106 27-788): as the sequence (P05106 27-788) above

Regarding `O=C(O)C(F)(F)F.O=C(O)CC(Cc1nc(CCCc2ccc3c(n2)NCCC3)no1)c1cccnc1` (stereo not drawn) [Example 32, 3-pyridin-3-yl-4-{3-[3-(5,6,7,8-tetrahydro-1,8-naphthyridin-2-yl)propyl]-1,2,4-oxadiazol-5-yl}butanoic acid], the IC50 in experiment [1] was < 10 µM. For the same molecule, the “HT-29 β-6 Selectivity* (β6/β3)” value in experiment [2] is reported as “+++ (Selectivity Ratio >100 +++)”. Besides, in experiment [3], the “SPRA AIIbB3 Selectivity* IIbIIIa/β3” value is recorded as “+++ (Selectivity Ratio >100 +++)”.

As to `O=C(O)CC(Cc1nc(CCCc2ccc3c(n2)NCCC3)no1)c1ccccc1` (stereo not drawn) [Example 34, 3-phenyl-4-{3-[3-(5,6,7,8-tetrahydro-1,8-naphthyridin-2-yl)propyl]-1,2,4-oxadiazol-5-yl}butanoic acid trifluoroacetate], the IC50 in experiment [1] was < 10 µM. The “HT-29 β-6 Selectivity* (β6/β3)” value in experiment [2] is on record as “+++ (Selectivity Ratio >100 +++)”. Besides, the “SPRA AIIbB3 Selectivity* IIbIIIa/β3” value in experiment [3] is “+++ (Selectivity Ratio >100 +++)”.

`O=C(O)CC(Cc1nc(CCCCNc2ccccn2)no1)c1ccc2c(c1)OCO2` (stereo not drawn) [Example 17, 3-(1,3-benzodioxol-5-yl)-4-{3-[4-(pyridin-2-ylamino)butyl]-1,2,4-oxadiazol-5-yl}butanoic acid]: the IC50 in experiment [1] is < 10 µM. Moreover, the “HT-29 β-6 Selectivity* (β6/β3)” value in experiment [2] was “+++ (Selectivity Ratio >100 +++)”. Further, in experiment [3], the “SPRA AIIbB3 Selectivity* IIbIIIa/β3” value is given as “++ (Selectivity Ratio of 10-100 ++)”.

For `O=C(O)CCCc1nc(CCCCNc2ccccn2)no1` [Example 41, 4-{3-[4-(pyridin-2-ylamino)butyl]-1,2,4-oxadiazol-5-yl}butanoic acid], the IC50 in experiment [1] is < 10 µM. The “HT-29 β-6 Selectivity* (β6/β3)” value in experiment [2] is on record as “+++ (Selectivity Ratio >100 +++)”. In addition, the “SPRA AIIbB3 Selectivity* IIbIIIa/β3” value in experiment [3] is “++ (Selectivity Ratio of 10-100 ++)”.

Take `O=C(O)CC(Cc1nc(CCCCNc2ccccn2)no1)c1ccccc1` (stereo not drawn) [Example 35, 3-phenyl-4-{3-[4-(pyridin-2-ylamino)butyl]-1,2,4-oxadiazol-5-yl}butanoic acid]: the IC50 in experiment [1] was < 10 µM. Besides, the “HT-29 β-6 Selectivity* (β6/β3)” value in experiment [2] was “+++ (Selectivity Ratio >100 +++)”. Moreover, the “SPRA AIIbB3 Selectivity* IIbIIIa/β3” value in experiment [3] is given as “++ (Selectivity Ratio of 10-100 ++)”.

In the case of `O=C(O)C(F)(F)F.O=C(O)CC(Cc1nc(CCCc2ccc3c(n2)NCCC3)no1)c1ccc2c(c1)OCO2` (stereo not drawn) [Example 16, 3-(1,3-benzodioxol-5-yl)-4-{3-[3-(5,6,7,8-tetrahydro-1,8-naphthyridin-2-yl)propyl]-1,2,4-oxadiazol-5-yl}butanoic acid], the IC50 in experiment [1] is < 10 µM. For the same molecule, the “HT-29 β-6 Selectivity* (β6/β3)” value in experiment [2] is on record as “+++ (Selectivity Ratio >100 +++)”. Further, the “SPRA AIIbB3 Selectivity* IIbIIIa/β3” value in experiment [3] was “+++ (Selectivity Ratio >100 +++)”.

On to `O=C(O)C(F)(F)F.O=C(O)CC(Cc1nc(CCCCNc2ccccn2)no1)c1ccc(F)cc1` (stereo not drawn) [Example 27, 3-(4-fluorophenyl)-4-{3-[4-(pyridin-2-ylamino)butyl]-1,2,4-oxadiazol-5-yl}butanoic acid], for which, in experiment [1], the IC50 is < 10 µM. In experiment [2], the “HT-29 β-6 Selectivity* (β6/β3)” value is reported as “+++ (Selectivity Ratio >100 +++)”. For the same molecule, in experiment [3], the “SPRA AIIbB3 Selectivity* IIbIIIa/β3” value was “+++ (Selectivity Ratio >100 +++)”.

On to `CC(C)(CC(=O)O)Cc1nc(CCCCNc2ccccn2)no1` [Example 62, β,β-dimethyl-3-[4-(2-pyridinylamino)butyl]-1,2,4-oxadiazole-5-butanoic acid], for which the IC50 in experiment [1] was < 10 µM. The “HT-29 β-6 Selectivity* (β6/β3)” value in experiment [2] is “+++ (Selectivity Ratio >100 +++)”. Besides, the “SPRA AIIbB3 Selectivity* IIbIIIa/β3” value in experiment [3] is “+++ (Selectivity Ratio >100 +++)”.

On to `O=C(O)C(F)(F)F.O=C(O)CC(Cc1nc(CCCCNc2ccccn2)no1)c1cccc(C(F)(F)F)c1` (stereo not drawn) [Example 29, 4-{3-[4-(pyridin-2-ylamino)butyl]-1,2,4-oxadiazol-5-yl}-3-[3-(trifluoromethyl)-phenyl]butanoic acid], for which, in experiment [1], the IC50 is < 10 µM. For the same molecule, in experiment [2], the “HT-29 β-6 Selectivity* (β6/β3)” value is “+++ (Selectivity Ratio >100 +++)”. In addition, the “SPRA AIIbB3 Selectivity* IIbIIIa/β3” value in experiment [3] is given as “+++ (Selectivity Ratio >100 +++)”.

For orientation: IC50 means the concentration needed to halve the response being measured.
